Experimental data from patent US9777020B2, “Furo-3-carboxamide derivatives and methods of use” (AbbVie Inc., priority 2014, dated 2017).

Target: TrkA (Homo sapiens (Human), UniProt P04629)
Assay: TrkA kinase HTRF enzyme inhibition assay
Assay type: biochemical
Settings: TrkA pre-incubated with 200 μM ATP
Procedure: TrkA enzyme was obtained from Invitrogen (as catalog numbers PV3144, PV3616, and PV3617, respectively). Enzyme activity was measured in an HTRF® (homogeneous time resolved fluorescence) assay, which detects enzymatic phosphorylation of a biotinylated synthetic peptide substrate (an LCK peptide analog, biotin-ahx-[…], from Genemed Synthesis). Phosphorylation is assessed by HTRF® in the presence of an anti-phosphotyrosine antibody conjugated to Eu^3+ cryptate (Cisbio) as donor fluorophore, and streptavidin conjugated to allophycocyanin (ProZyme) as acceptor fluorophore. The HTRF® signal was detected at two different wavelengths (620 nm and 665 nm) which were used to calculate the fluorescence ratio.
TrkA enzyme was titrated to a concentration optimized to ensure accurate measurement of the initial reaction rate. To allow the TrkA enzyme to undergo activation and auto-phosphorylation, a 20 minute pre-incubation with ATP was carried out (at twice the final targeted enzyme and ATP concentration) prior to addition of test compound and the peptide substrate.
TrkA in vitro assays were performed by pre-incubating TrkA (2-10 nM) with ATP (200 μM) for 20 minutes at ambient temperature in 50 mM HEPES pH 7.4, 10 mM MgCl2, 2 mM MnCl2, 100 μM Na3VO4, 1 mM dithiothreitol, 0.01% BSA (bovine serum albumin). Then, to the activated Trk enzyme mixture was added the test compound in 2% dimethyl sulfoxide. After 10 minutes, the peptide substrate (125 nM) was added. After 1 hour, enzyme reactions were terminated by addition of equal reaction volumes of detection/stop reagent (containing 0.2 μg/mL anti-phosphotyrosine monoclonal antibody labeled with europium from Cisbio (catalog#PT66-K), and 4 μg/mL PhycoLink® Streptavidin-Allophycocyanin conjugate from ProZyme (catalog#PJ25S) in 60 mM EDTA in 40 mM HEPES pH 7.4, 480 mM KF, 0.01% Tween® 20 and 0.1% BSA bovine serum albumin) Reaction plates were stored at 4° C. overnight before reading the fluorescence ratio signal on a PerkinElmer EnVision™ fluorescence detector. Individual reaction wells were stopped at time points to obtain reaction rates. The test inhibitor compounds were assayed in duplicate, at half-log serial dilutions over a range of concentrations (e.g. starting at 50 μM or 5 μM as the high compound concentration). The percent Trk enzyme inhibition was calculated from the initial rates of the inhibited reactions relative to the uninhibited control. IC50 values were calculated by fitting the inhibition percent to the concentration of inhibitor [I] in the assay in equation 1 below, to solve for the IC50. Inhibition %=100[I]/([I]+[IC50]) equation 1

Sequence of TrkA (P04629 33-796): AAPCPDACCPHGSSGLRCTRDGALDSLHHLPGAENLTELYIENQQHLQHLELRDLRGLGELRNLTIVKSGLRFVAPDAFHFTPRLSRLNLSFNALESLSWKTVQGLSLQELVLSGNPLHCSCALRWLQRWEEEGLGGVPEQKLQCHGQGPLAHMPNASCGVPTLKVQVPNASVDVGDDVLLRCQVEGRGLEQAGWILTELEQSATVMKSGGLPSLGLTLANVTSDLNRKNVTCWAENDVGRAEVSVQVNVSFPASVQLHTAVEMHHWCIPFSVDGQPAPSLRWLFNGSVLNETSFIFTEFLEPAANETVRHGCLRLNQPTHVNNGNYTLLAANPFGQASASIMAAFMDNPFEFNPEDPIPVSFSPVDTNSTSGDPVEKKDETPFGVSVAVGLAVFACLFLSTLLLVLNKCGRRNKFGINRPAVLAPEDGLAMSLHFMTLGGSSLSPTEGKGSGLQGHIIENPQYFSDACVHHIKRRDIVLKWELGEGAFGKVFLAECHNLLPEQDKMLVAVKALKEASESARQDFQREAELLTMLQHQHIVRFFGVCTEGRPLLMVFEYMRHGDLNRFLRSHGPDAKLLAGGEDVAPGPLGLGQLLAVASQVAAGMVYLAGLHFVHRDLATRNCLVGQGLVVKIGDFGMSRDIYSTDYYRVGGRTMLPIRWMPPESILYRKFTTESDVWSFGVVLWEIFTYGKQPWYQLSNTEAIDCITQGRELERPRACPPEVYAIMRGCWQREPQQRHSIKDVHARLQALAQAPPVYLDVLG

Row | Compound | IC50
1 | N#Cc1ccc(NC(=O)c2coc3c2C(=O)NCC3)cc1 [Example 39, N-(4-cyanophenyl)-4-oxo-4,5,6,7-tetrahydrofuro[3,2-c]pyridine-3-carboxamide] | 0.43 µM
2 | O=C(Nc1ccc(F)cn1)c1coc2c1C(=O)NCC2 [Example 40, N-(5-fluoropyridin-2-yl)-4-oxo-4,5,6,7-tetrahydrofuro[3,2-c]pyridine-3-carboxamide] | 3.24 µM
3 | COc1ccc(NC(=O)c2coc3c2C(=O)NCC3)cn1 [Example 41, N-(6-methoxypyridin-3-yl)-4-oxo-4,5,6,7-tetrahydrofuro[3,2-c]pyridine-3-carboxamide] | 1.39 µM
4 | O=C(Nc1ccc(Cl)cn1)c1coc2c1C(=O)NCC2 [Example 42, N-(5-chloropyridin-2-yl)-4-oxo-4,5,6,7-tetrahydrofuro[3,2-c]pyridine-3-carboxamide] | 0.918 µM
5 | N#Cc1cccc(NC(=O)c2coc3c2C(=O)NCC3)c1 [Example 43, N-(3-cyanophenyl)-4-oxo-4,5,6,7-tetrahydrofuro[3,2-c]pyridine-3-carboxamide] | 5.64 µM
6 | CCOc1ccc(NC(=O)c2coc3c2C(=O)NCC3)cn1 [Example 44, N-(6-ethoxypyridin-3-yl)-4-oxo-4,5,6,7-tetrahydrofuro[3,2-c]pyridine-3-carboxamide] | 4.47 µM
7 | Cc1n[nH]c2ccc(NC(=O)c3coc4c3C(=O)NCC4)cc12 [Example 45, N-(3-methyl-1H-indazol-5-yl)-4-oxo-4,5,6,7-tetrahydrofuro[3,2-c]pyridine-3-carboxamide] | 3.48 µM
8 | Cc1cc2[nH]ncc2cc1NC(=O)c1coc2c1C(=O)NCC2 [Example 46, N-(6-methyl-1H-indazol-5-yl)-4-oxo-4,5,6,7-tetrahydrofuro[3,2-c]pyridine-3-carboxamide] | 0.855 µM
9 | O=C(Nc1nc2ccccc2s1)c1coc2c1C(=O)NCC2 [Example 47, N-(1,3-benzothiazol-2-yl)-4-oxo-4,5,6,7-tetrahydrofuro[3,2-c]pyridine-3-carboxamide] | 1.22 µM
10 | COC(=O)c1n[nH]c2ccc(NC(=O)c3coc4c3C(=O)NCC4)cc12 [Example 48, methyl 5-{[(4-oxo-4,5,6,7-tetrahydrofuro[3,2-c]pyridin-3-yl)carbonyl]amino}-1H-indazole-3-carboxylate] | 0.506 µM
11 | CCN(CC)c1ccc(NC(=O)c2coc3c2C(=O)NCC3)cc1 [Example 49, N-[4-(diethylamino)phenyl]-4-oxo-4,5,6,7-tetrahydrofuro[3,2-c]pyridine-3-carboxamide] | 0.631 µM
12 | CC(O)Cn1ncc2cc(NC(=O)c3coc4c3C(=O)NCC4)ccc21 (stereo not drawn) [Example 50, N-[1-(2-hydroxypropyl)-1H-indazol-5-yl]-4-oxo-4,5,6,7-tetrahydrofuro[3,2-c]pyridine-3-carboxamide] | 0.0907 µM
13 | CS(=O)(=O)NCCn1cc2cc(NC(=O)c3coc4c3C(=O)NCC4)ccc2n1 [Example 51, N-(2-{2-[(methylsulfonyl)amino]ethyl}-2H-indazol-5-yl)-4-oxo-4,5,6,7-tetrahydrofuro[3,2-c]pyridine-3-carboxamide] | 0.0189 µM
14 | CN1CCN(CCn2cc3cc(NC(=O)c4coc5c4C(=O)NCC5)ccc3n2)CC1 [Example 52, N-{2-[2-(4-methylpiperazin-1-yl)ethyl]-2H-indazol-5-yl}-4-oxo-4,5,6,7-tetrahydrofuro[3,2-c]pyridine-3-carboxamide] | 0.0184 µM
15 | O=C(Nc1ccc2c(cnn2CCO)c1)c1coc2c1C(=O)NCC2 [Example 53, N-[1-(2-hydroxyethyl)-1H-indazol-5-yl]-4-oxo-4,5,6,7-tetrahydrofuro[3,2-c]pyridine-3-carboxamide] | 0.0675 µM
16 | O=C(Nc1ccc2c(cnn2CCN2CCCC2)c1)c1coc2c1C(=O)NCC2 [Example 54, 4-oxo-N-{1-[2-(pyrrolidin-1-yl)ethyl]-1H-indazol-5-yl}-4,5,6,7-tetrahydrofuro[3,2-c]pyridine-3-carboxamide] | 0.108 µM
17 | CC(O)Cn1cc2cc(NC(=O)c3coc4c3C(=O)NCC4)ccc2n1 (stereo not drawn) [Example 55, N-[2-(2-hydroxypropyl)-2H-indazol-5-yl]-4-oxo-4,5,6,7-tetrahydrofuro[3,2-c]pyridine-3-carboxamide] | 0.0208 µM
18 | O=C(Nc1ccc2c(cnn2CCN2CCOCC2)c1)c1coc2c1C(=O)NCC2 [Example 56, N-{1-[2-(morpholin-4-yl)ethyl]-1H-indazol-5-yl}-4-oxo-4,5,6,7-tetrahydrofuro[3,2-c]pyridine-3-carboxamide] | 0.0485 µM
19 | CN1CCN(CCn2ncc3cc(NC(=O)c4coc5c4C(=O)NCC5)ccc32)CC1 [Example 57, N-{1-[2-(4-methylpiperazin-1-yl)ethyl]-1H-indazol-5-yl}-4-oxo-4,5,6,7-tetrahydrofuro[3,2-c]pyridine-3-carboxamide] | 0.0346 µM
20 | CS(=O)(=O)NCCn1ncc2cc(NC(=O)c3coc4c3C(=O)NCC4)ccc21 [Example 58, N-(1-{2-[(methylsulfonyl)amino]ethyl}-1H-indazol-5-yl)-4-oxo-4,5,6,7-tetrahydrofuro[3,2-c]pyridine-3-carboxamide] | 0.105 µM
21 | CN1CCc2occ(C(=O)Nc3ccc(O)cc3)c2C1=O [Example 59, N-(4-hydroxyphenyl)-5-methyl-4-oxo-4,5,6,7-tetrahydrofuro[3,2-c]pyridine-3-carboxamide] | 0.984 µM
22 | CC(=O)Nc1ccc(NC(=O)c2coc3c2C(=O)N(C)CC3)cc1 [Example 60, N-(4-acetamidophenyl)-5-methyl-4-oxo-4,5,6,7-tetrahydrofuro[3,2-c]pyridine-3-carboxamide] | 2.11 µM
23 | CN1CCc2occ(C(=O)Nc3ccc(N4CCCCC4)cc3)c2C1=O [Example 61, 5-methyl-4-oxo-N-[4-(piperidin-1-yl)phenyl]-4,5,6,7-tetrahydrofuro[3,2-c]pyridine-3-carboxamide] | 0.195 µM
24 | CN1CCc2occ(C(=O)Nc3cnc4ccccc4c3)c2C1=O [Example 62, 5-methyl-4-oxo-N-(quinolin-3-yl)-4,5,6,7-tetrahydrofuro[3,2-c]pyridine-3-carboxamide] | 0.827 µM
25 | CN1CCc2occ(C(=O)Nc3ccc4ncccc4c3)c2C1=O [Example 63, 5-methyl-4-oxo-N-(quinolin-6-yl)-4,5,6,7-tetrahydrofuro[3,2-c]pyridine-3-carboxamide] | 0.319 µM
26 | CN1CCc2occ(C(=O)Nc3ccc4cn[nH]c4c3)c2C1=O [Example 64, N-(1H-indazol-6-yl)-5-methyl-4-oxo-4,5,6,7-tetrahydrofuro[3,2-c]pyridine-3-carboxamide] | 0.134 µM
27 | COc1ccc(NC(=O)c2coc3c2C(=O)N(C)CC3)c(OC)n1 [Example 65, N-(2,6-dimethoxypyridin-3-yl)-5-methyl-4-oxo-4,5,6,7-tetrahydrofuro[3,2-c]pyridine-3-carboxamide] | 0.146 µM
28 | Cc1cc(NC(=O)c2coc3c2C(=O)N(C)CC3)no1 [Example 66, 5-methyl-N-(5-methyl-1,2-oxazol-3-yl)-4-oxo-4,5,6,7-tetrahydrofuro[3,2-c]pyridine-3-carboxamide] | 5.08 µM
29 | CN1CCc2occ(C(=O)Nc3ccc(C#N)cc3)c2C1=O [Example 67, N-(4-cyanophenyl)-5-methyl-4-oxo-4,5,6,7-tetrahydrofuro[3,2-c]pyridine-3-carboxamide] | 1.08 µM
30 | CN1CCc2occ(C(=O)Nc3ccc(F)cn3)c2C1=O [Example 68, N-(5-fluoropyridin-2-yl)-5-methyl-4-oxo-4,5,6,7-tetrahydrofuro[3,2-c]pyridine-3-carboxamide] | 5.82 µM
